Reference: patent US20240261367A1, “CYCLIC PEPTIDE IMMUNOMODULATORS” (priority 2021, published 2024)
Positions of bridges follow the written chain, without caps; N, C: chain ends. Non-standard residues stand in square brackets, D forms with d. Residues, ends and D or L forms follow the SMILES beside them. *: point of attachment. X1 = COC(=O)CCCCCCCCCCCCCCCCC(=O)N[C@@H](CCC(=O)NCCOCCOCCOCCOCCOCCOCCOCCOCCOCCOCCOCCn1cc(C[C@H](NC(=N)CN*)C(=O)O)nn1)C(=O)O; Trp(1-CH2COOH) = N[C@@H](Cc1cn(CC(=O)O)c2ccccc12)C(=O)O; Hyp = O=C(O)[C@@H]1C[C@@H](O)CN1; NMeNle = CCCC[C@H](NC)C(=O)O; NMeA = CN[C@@H](C)C(=O)O; Dab = NCC[C@H](N)C(=O)O; Dap = NC[C@H](N)C(=O)O

Target: T1, PD-1/PD-L1 (Homo sapiens, UniProt Q9NZQ7)
T1 construct: TVMV protease site linker (C); made in house; host or cells: HEK293T cells
T1 sequence (Q9NZQ7 18-239): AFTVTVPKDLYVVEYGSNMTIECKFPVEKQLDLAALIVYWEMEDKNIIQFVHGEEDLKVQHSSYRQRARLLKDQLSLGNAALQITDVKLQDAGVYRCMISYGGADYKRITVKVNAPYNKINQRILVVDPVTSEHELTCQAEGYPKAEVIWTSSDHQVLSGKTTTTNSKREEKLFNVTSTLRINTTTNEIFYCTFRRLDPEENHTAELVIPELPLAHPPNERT
Assay: PD-1/PD-L1 Homogenous Time-Resolved Fluorescence (HTRF) binding assay
Conditions: PD-L1-His (10 nM) pre-incubated with inhibitor 15 m, then PD-1-Ig (20 nM)
From the text: Methods for Testing the Ability of Macrocyclic Peptides to Compete for the Binding of PD-1 to PD-L1 Using Homogenous Time-Resolved Fluorescence (HTRF) Binding Assays
The ability of the compounds of formula (I) to bind to PD-L1 was investigated using a PD-1/PD-L1 Homogenous Time-Resolved Fluorescence (HTRF) binding assay.
Homogenous Time-Resolved Fluorescence (HTRF) Binding Assay
The interaction of PD-1 and PD-L1 can be assessed using soluble, purified preparations of the extracellular domains of the two proteins. The PD-1 and PD-L1 protein extracellular domains were expressed as fusion proteins with detection tags, for PD-1, the tag was the Fc portion of Immunoglobulin (PD-1-Ig) and for PD-L1 it was the 6 histidine motif (PD-L1-His). All binding studies were performed in an HTRF assay buffer consisting of dPBS supplemented with 0.1% […] bovine serum albumin and 0.05% (v/v) Tween-20. […] HTRF detection was achieved using europium crypate-labeled anti-Ig (1 nM final) and allophycocyanin (APC) labeled anti-His (20 nM final). Antibodies were diluted in HTRF detection buffer and 5 μl was dispensed on top of the binding reaction. The reaction mixture was allowed to equilibrate for 30 minutes and the resulting signal (665 nm/620 nm ratio) was obtained using an EnVision fluorometer. Additional binding assays were established between the human proteins PD-1-Ig/PD-L2-His (20 & 5 nM, respectively) and CD80-His/PD-L1-Ig (100 & 10 nM, respectively).
Recombinant Proteins: Human PD-1 (25-167) with a C-terminal human Fc domain of immunoglobulin G (Ig) epitope tag [hPD-1 (25-167)-3S-IG] and human PD-L1 (18-239) with a C-terminal His epitope tag [hPD-L1(18-239)-TVMV-His] were expressed in HEK293T cells and purified sequentially by ProteinA affinity chromatography and size exclusion chromatography. Human PD-L2-His and CD80-His was obtained through commercial sources.
Table 1 lists the IC50 values for representative examples of this disclosure measured in the PD-1/PD-L1 Homogenous Time-Resolved Fluorescence (HTRF) binding assay.

| SMILES | IC50 |
| --- | --- |
| CCCC[C@H]1C(=O)N(C)[C@@H](CCCC)C(=O)N[C@@H](CC(C)C)C(=O)N[C@H](C(=O)NCC(=N)N[C@@H](Cc2cn(CCOCCOCCOCCOCCOCCOCCOCCOCCOCCOCCOCCNC(=O)CC[C@H](NC(=O)CCCCCCCCCCCCCCCCC(=O)OC)C(=O)O)nn2)C(=O)O)CSCC(=O)N[C@@H](Cc2ccc(O)cc2)C(=O)N(C)[C@@H](C)C(=O)N[C@@H](CC(N)=O)C(=O)N2CCC[C@H]2C(=O)N[C@@H](CN)C(=O)N[C@@H](CC(C)C)C(=O)N2C[C@H](O)C[C@H]2C(=O)N[C@@H](Cc2c[nH]c3ccccc23)C(=O)N[C@@H](CCN)C(=O)N[C@@H](Cc2cn(CC(=O)O)c3ccccc23)C(=O)N1C [Example 1007] ({CH2CO}-Y[NMeA]NP[Dap]L[Hyp]W[Dab][Trp(1-CH2COOH)][NMeNle][NMeNle]LC-X1; thioether N-14) | 21 nM |
| CCCC[C@H]1C(=O)N(C)[C@@H](CCCC)C(=O)N[C@@H](CC(C)C)C(=O)N[C@H](C(=O)NCC(=O)N[C@@H](Cc2cn(CCOCCOCCOCCOCCOCCOCCOCCOCCOCCOCCOCCNC(=O)CC[C@H](NC(=O)CCCCCCCCCCCCCCCCC(=O)O)C(=O)O)nn2)C(=O)O)CSCC(=O)N[C@@H](Cc2ccc(O)cc2)C(=O)N(C)[C@@H](C)C(=O)N[C@@H](CC(N)=O)C(=O)N2CCC[C@H]2C(=O)N[C@@H](CNC(=O)OCC)C(=O)N[C@@H](CC(C)C)C(=O)N2C[C@H](O)C[C@H]2C(=O)N[C@@H](Cc2c[nH]c3ccccc23)C(=O)N[C@@H](CCNC(=O)OC)C(=O)N[C@@H](Cc2cn(CC(=O)O)c3ccccc23)C(=O)N1C [Example 7013] | 49 nM |
| CCCC[C@H]1C(=O)N(C)[C@@H](CCCC)C(=O)N[C@@H](CC(C)C)C(=O)N[C@H](C(=O)NCC(=O)N[C@@H](Cc2cn(CCOCCOCCOCCOCCOCCOCCOCCOCCOCCOCCOCCNC(=O)CC[C@H](NC(=O)CCCCCCCCCCCCCCCCC(=O)OC)C(=O)O)nn2)C(=O)O)CSCC(=O)N[C@@H](Cc2ccc(O)cc2)C(=O)N(C)[C@@H](C)C(=O)N[C@@H](CC(N)=O)C(=O)N2CCC[C@H]2C(=O)N[C@@H](CNC(=O)OCC)C(=O)N[C@@H](CC(C)C)C(=O)N2C[C@H](O)C[C@H]2C(=O)N[C@@H](Cc2c[nH]c3ccccc23)C(=O)N[C@@H](CCN)C(=O)N[C@@H](Cc2cn(CC(=O)O)c3ccccc23)C(=O)N1C [Example 7001] | 53 nM |
| CCCC[C@H]1C(=O)N(C)[C@@H](CCCC)C(=O)N[C@@H](CC(C)C)C(=O)N[C@H](C(=O)NCC(=O)N[C@@H](Cc2cn(CCOCCOCCOCCOCCOCCOCCOCCOCCOCCOCCOCCNC(=O)CC[C@H](NC(=O)CCCCCCCCCCCCCCCCC(=O)O)C(=O)O)nn2)C(=O)O)CSCC(=O)N[C@@H](Cc2ccc(O)cc2)C(=O)N(C)[C@@H](C)C(=O)N[C@@H](CC(N)=O)C(=O)N2CCC[C@H]2C(=O)N[C@@H](CNC(=O)OCC(C)C)C(=O)N[C@@H](CC(C)C)C(=O)N2C[C@H](O)C[C@H]2C(=O)N[C@@H](Cc2c[nH]c3ccccc23)C(=O)N[C@@H](CCN)C(=O)N[C@@H](CC2=CC(CC(=O)O)c3ccccc32)C(=O)N1C (some centres unmarked) [Example 1014] | 3.1 nM |
| CCCC[C@H]1C(=O)N(C)[C@@H](CCCC)C(=O)N[C@@H](CC(C)C)C(=O)N[C@H](C(=O)NCC(=O)N[C@@H](Cc2cn(CCOCCOCCOCCOCCOCCOCCOCCOCCOCCOCCOCCNC(=O)CC[C@H](NC(=O)CCCCCCCCCCCCCCCCC(=O)O)C(=O)O)nn2)C(=O)O)CSCC(=O)N[C@@H](Cc2ccc(O)cc2)C(=O)N(C)[C@@H](C)C(=O)N[C@@H](CC(N)=O)C(=O)N2CCC[C@H]2C(=O)N[C@@H](CNC(=O)OCC)C(=O)N[C@@H](CC(C)C)C(=O)N2C[C@H](O)C[C@H]2C(=O)N[C@@H](Cc2c[nH]c3ccccc23)C(=O)N[C@@H](CCNC(=O)OCc2oc(=O)oc2C)C(=O)N[C@@H](Cc2cn(CC(=O)O)c3ccccc23)C(=O)N1C [Example 7014] | 8.6 nM |
